Data reported in paper PMC5736936, “Xylopine Induces Oxidative Stress and Causes G2/M Phase Arrest, Triggering Caspase-Mediated Apoptosis by p53-Independent Pathway in HCT116 Cells” (Oxidative Medicine and Cellular Longevity, 2017).
Like-named read-outs stand apart in the source and are kept apart here.

Tests used:
[1] = tested on: WT SV40 MEF (wild-type immortalized mouse embryonic fibroblast); assay: Cytotoxic activity in wild-type fibroblasts; format: cell-based; conditions: WT SV40 MEF cell line
From the text: (§1) MCF7 (human breast carcinoma), HCT116 (human colon carcinoma), HepG2 (human hepatocellular carcinoma), SCC-9 (human oral squamous cell carcinoma), HSC-3 (human oral squamous cell carcinoma), HL-60 (human promyelocytic leukemia), K-562 (human chronic myelogenous leukemia), B16-F10 (murine melanoma), MRC-5 (human lung fibroblast), WT SV40 MEF (wild-type immortalized mouse embryonic fibroblast), and BAD KO SV40 MEF (BAD gene knockout immortalized mouse embryonic fibroblast) cell lines were obtained from the American Type Culture Collection (ATCC, Manassas, VA, USA). Cells were cultured in complete medium with appropriate supplements as recommended by ATCC. All cell lines were tested for mycoplasma using the Mycoplasma Stain Kit (Sigma-Aldrich) to validate the use of cells free from contamination. Primary cell culture of peripheral blood mononuclear cells (PBMC) was obtained by standard Ficoll density protocol. The Research Ethics Committee of the Oswaldo Cruz Foundation (Salvador, BA, Brazil) approved the experimental protocol (number 031019/2013). Cell viability was examined using trypan blue exclusion assay for all experiments.
(§2) Cell viability was quantified using the alamarBlue assay according to Ahmed et al.. Cells were inserted in 96-well plates for all experiments (7 × 10^4 cells/mL for adherent cells or 3 × 10^5 cells/mL for suspended cells in 100 μL of medium). After 24 h, xylopine was dissolved in dimethyl sulfoxide (DMSO) and added to each well and incubated for 72 h. […] Four (for cell lines) or 24 h (for PBMCs) before the end of incubation, 20 μL of a stock solution (0.312 mg/mL) of the alamarBlue (resazurin, Sigma-Aldrich Co., Saint Louis, MO, USA) was added to each well. Absorbance at 570 nm and 600 nm was measured using the SpectraMax 190 Microplate Reader (Molecular Devices, Sunnyvale, CA, USA), and the drug effect was quantified as the percentage of control absorbance.

[2] = tested on: BAD KO SV40 MEF (BAD gene knockout immortalized mouse embryonic fibroblast); assay: Cytotoxic activity in BAD gene knockout fibroblasts; format: cell-based; conditions: BAD KO SV40 MEF cell line
From the text: as §1, §2

[3] = tested on: K562 (human chronic myelogenous leukemia); assay: Cytotoxic activity, alamarBlue assay, 72 h; format: cell-based; conditions: for IC50: K562, alamarBlue, 72 h;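 on Selectivity index: SI is noncancer IC50 (MRC-5 or PBMC) divided by cancer cell IC50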
From the text: as §1, §2

[4] = tested on: HepG2 (human hepatocellular carcinoma); assay: Cytotoxic activity, alamarBlue assay, 72 h; format: cell-based; conditions: for IC50: HepG2, alamarBlue, 72 h
From the text: as §1, §2

[5] = tested on: B16-F10 (murine melanoma); assay: Cytotoxic activity, alamarBlue assay, 72 h; format: cell-based; conditions: for IC50: B16-F10, alamarBlue, 72 h
From the text: as §1, §2

[6] = tested on: HL-60 (human promyelocytic leukemia); assay: Cytotoxic activity, alamarBlue assay, 72 h; format: cell-based; conditions: for IC50: HL-60, alamarBlue, 72 h;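 on Selectivity index: SI is noncancer IC50 (MRC-5 or PBMC) divided by cancer cell IC50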
From the text: as §1, §2

[7] = tested on: MCF7 (human breast carcinoma); assay: Cytotoxic activity, alamarBlue assay, 72 h; format: cell-based; conditions: for IC50: MCF7, alamarBlue, 72 h;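 on Selectivity index: SI is noncancer IC50 (MRC-5 or PBMC) divided by cancer cell IC50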
From the text: as §1, §2

[8] = tested on: HCT116 (human colon carcinoma); assay: Cytotoxic activity, alamarBlue assay, 72 h; format: cell-based; conditions: for IC50: HCT116, alamarBlue, 72 h;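 on Selectivity index: SI is noncancer IC50 (MRC-5 or PBMC) divided by cancer cell IC50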
From the text: as §1, §2

[9] = tested on: HSC3 (human oral squamous cell carcinoma); assay: Cytotoxic activity, alamarBlue assay, 72 h; format: cell-based; conditions: for IC50: HSC3, alamarBlue, 72 h
From the text: as §1, §2

[10] = tested on: cancer multicellular spheroids formed from HCT116 cells; assay: 3D multicellular spheroids culture, alamarBlue assay, 72 h; format: cell-based, human; conditions: 3D spheroids of HCT116, alamarBlue, 72 h
Description: HCT116 cells were cultivated in three-dimensional (3D) multicellular spheroids. Briefly, 100 μL of a solution of cells (0.5 × 10^6 cells/mL) was inserted in 96-well plates with a cell-repellent surface (Greiner Bio-One, Kremsmünster, Austria) and cultured in complete medium plus 3% Matrigel (BD Biosciences, San Jose, CA, USA). Spheroids with stable structures had formed after three days. Then, the spheroids were exposed to a range of drug concentrations for 72 h, after which the cell viability was quantified by alamarBlue assay as described above.

HCT116 cells [11] = format: cell-based, human; conditions: for cell cycle block: OXA 2.5 μM
Description: Cells were harvested in a permeabilization solution containing 0.1% Triton X-100 (Sigma Chemical Co., St Louis, MO, USA), 2 μg/mL propidium iodide (Sigma Chemical Co.), 0.1% sodium citrate, and 100 μg/mL RNAse (Sigma Chemical Co.) and incubated in the dark for 15 min at room temperature. Finally, cell fluorescence was measured by flow cytometry on a BD LSRFortessa cytometer using the BD FACSDiva software (BD Biosciences) and FlowJo software 10 (FlowJo, LCC, Ashland, OR, USA).

HCT116 cells [12] = assay: Morphological analysis (May-Grünwald-Giemsa); format: cell-based, human; conditions: 24 and 48 h, DOX 1 μM, OXA 2.5 μM
Description: To evaluate alterations in morphology, cells were cultured under coverslip and stained with May-Grünwald-Giemsa. Morphological changes were examined by light microscopy using Image-Pro software.

HCT116 cells [13] = assay: Cell viability by trypan blue exclusion assay; format: cell-based, human; conditions: HCT116, trypan blue, DOX 1 μM, OXA 2.5 μM, 24 and 48 h
From the text: as §1

[14] = tested on: MRC5 (human lung fibroblast); assay: Cytotoxic activity, alamarBlue assay, 72 h (noncancer cells); format: cell-based
From the text: as §1, §2

[15] = tested on: PBMC (human peripheral blood mononuclear cells); assay: as above; format: cell-based
From the text: as §1, §2

[16] = tested on: SCC9 (human oral squamous cell carcinoma); assay: Cytotoxic activity, alamarBlue assay, 72 h; format: cell-based
From the text: as §1, §2

calf thymus DNA (ctDNA) = assay: DNA intercalation assay (ethidium bromide displacement); format: binding; conditions: doxorubicin 10 μM, data not shown
Description: DNA intercalation was assessed by examining the ability of xylopine to displace ethidium bromide from calf thymus DNA (ctDNA, Sigma-Aldrich Co.). The assay was conducted in 96-well plates and contained 15 μg/mL ctDNA, 1.5 μM ethidium bromide, and 10 or 20 μM xylopine in 100 μL saline solution. […] Fluorescence was measured using excitation and emission wavelengths of 320 and 600 nm, respectively.

[17] = HCT116, OXA 2.5 μM, 24 h incubation
[18] = HCT116, OXA 2.5 μM, 48 h incubation
[19] = HCT116, DOX 1 μM, 24 h incubation
[20] = HCT116, DOX 1 μM, 48 h incubation

## O=c1[nH]cc(F)c(=O)[nH]1 [5-FU, 5-fluorouracil]
[1]
  IC50: 1700 nM
[2]
  IC50: 7300 nM

## O=C1[O][Pt]2([NH][C@@H]3CCCC[C@H]3[NH]2)[O]C1=O [OXA, oxaliplatin, reference compound]
[3]
  IC50: 900 nM
[4]
  IC50: 1000 nM
[5]
  IC50: 100 nM
[6]
  IC50: 400 nM
[7]
  IC50: 5900 nM
[8]
  IC50: 4100 nM
[9]
  IC50: 3300 nM
[10]
  IC50: 6 µM
HCT116 cells [11]; HCT116, DOX 1 μM
  cell cycle block: caused cell cycle block at the phase G2/M
HCT116 cells [11]; [17]
  DNA content (%) G0/G1: 32.4 ± 3.7%
  DNA content (%) G2/M: 39.9 ± 1.5%
  DNA content (%) S: 13.5 ± 3.1%
  DNA content (%) Sub-G0/G1: 8.8 ± 3.5%
HCT116 cells [11]; [18]
  DNA content (%) G0/G1: 36.2 ± 2.6%
  DNA content (%) G2/M: 32.2 ± 4.4%
  DNA content (%) S: 7.6 ± 0.4%
  DNA content (%) Sub-G0/G1: 17.7 ± 1.9%
HCT116 cells [12]
  cell morphology: cell shrinkage, chromatin condensation, and nuclear fragmentation
HCT116 cells [13]
  number of viable cells: reduced the number of viable cells
[14]
  IC50: 1500 nM
[15]
  IC50: 14900 nM

## COc1cccc2c1C(=O)c1c(O)c3c(c(O)c1C2=O)C[C@@](O)(C(=O)CO)C[C@@H]3O[C@H]1C[C@H](N)[C@H](O)[C@H](C)O1 [DOX, doxorubicin]
[3]; Homo sapiens
  IC50: 300 nM
[3]; IC50(MRC5)/IC50(K-562)
  Selectivity index: 5
[3]; IC50(PBMC)/IC50(K-562)
  Selectivity index: 17.3
[4]; Homo sapiens
  IC50: 100 nM
[4]; IC50(MRC5)/IC50(HepG2)
  Selectivity index: 15
[4]; IC50(PBMC)/IC50(HepG2)
  Selectivity index: 52
[5]; IC50(MRC5)/IC50(B16-F10)
  Selectivity index: 50
[5]; IC50(PBMC)/IC50(B16-F10)
  Selectivity index: 173.3
[5]; Mus musculus
  IC50: 30 nM
[6]; Homo sapiens
  IC50: 300 nM
[6]; IC50(MRC5)/IC50(HL-60)
  Selectivity index: 5
[6]; IC50(PBMC)/IC50(HL-60)
  Selectivity index: 17.3
[16]; Homo sapiens, SCC-9, SCC9, alamarBlue, 72 h
  IC50: 500 nM
[16]; IC50(MRC5)/IC50(SCC-9)
  Selectivity index: 3
[7]; Homo sapiens
  IC50: 1100 nM
[7]; IC50(MRC5)/IC50(MCF7)
  Selectivity index: 1.4
[7]; IC50(PBMC)/IC50(MCF7)
  Selectivity index: 4.7
[8]; Homo sapiens, HCT-116
  IC50: 100 nM
[8]; IC50(MRC5)/IC50(HCT116)
  Selectivity index: 15
[8]; IC50(PBMC)/IC50(HCT116)
  Selectivity index: 52
[9]; Homo sapiens, HSC-3
  IC50: 300 nM
[9]; IC50(MRC5)/IC50(HSC-3)
  Selectivity index: 5
[9]; IC50(PBMC)/IC50(HSC-3)
  Selectivity index: 17.3
[10]; Homo sapiens, HCT-116
  IC50: 4.5 µM
HCT116 cells [11]; [19]
  DNA content (%) G0/G1: 28.0 ± 6.3%
  DNA content (%) G2/M: 44.1 ± 3.4^∗ %
  DNA content (%) S: 10.0 ± 2.5%
  DNA content (%) Sub-G0/G1: 9.7 ± 2.5%
HCT116 cells [11]; [20]
  DNA content (%) G0/G1: 22.5 ± 4.0^∗ %
  DNA content (%) G2/M: 44.2 ± 4.4^∗ %
  DNA content (%) S: 14.9 ± 2.5%
  DNA content (%) Sub-G0/G1: 18.3 ± 2.5%
HCT116 cells [11]; HCT116, DOX 1 μM
  cell cycle block: caused cell cycle block at the phase G2/M
Calf thymus DNA (ctDNA)
  displacement of ethidium bromide from ctDNA (fluorescence intensity): significantly reduced the fluorescence intensity
HCT116 cells [12]
  cell morphology: cell shrinkage, chromatin condensation, and nuclear fragmentation
[1]
  IC50: 30 nM
[2]
  IC50: 400 nM
HCT116 cells [13]
  number of viable cells: reduced the number of viable cells
[14]; Homo sapiens
  IC50: 1500 nM
[15]; Homo sapiens
  IC50: 5200 nM
